According to PMC9062259, “Mammalian Ddi2 is a shuttling factor containing a retroviral protease domain that influences binding of ubiquitylated proteins and proteasomal degradation” (The Journal of Biological Chemistry, 2022):

T1: Ddi2 (Homo sapiens, UniProt Q5TDH0)
T1 construct: His6-Ddi2
T1 sequence (Q5TDH0 1-399): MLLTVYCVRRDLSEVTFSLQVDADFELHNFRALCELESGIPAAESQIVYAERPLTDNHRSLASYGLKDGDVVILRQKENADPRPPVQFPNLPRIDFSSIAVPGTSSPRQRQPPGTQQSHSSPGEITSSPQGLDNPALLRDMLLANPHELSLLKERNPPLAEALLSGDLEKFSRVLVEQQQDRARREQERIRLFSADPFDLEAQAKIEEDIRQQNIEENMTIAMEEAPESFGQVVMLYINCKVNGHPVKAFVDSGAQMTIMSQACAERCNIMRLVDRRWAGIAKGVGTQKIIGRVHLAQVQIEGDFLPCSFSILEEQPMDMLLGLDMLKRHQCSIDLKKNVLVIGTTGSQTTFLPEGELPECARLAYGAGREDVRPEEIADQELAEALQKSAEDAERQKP

B1: His6-Ddi2 (natural protein, human, UniProt Q5TDH0 1-399, looked up)
chain: T1 sequence (Q5TDH0 1-399)
notes: Ddi2, human, from a pET16b plasmid (gift from Klara Saskova); Collected from gel filtration at a molecular weight consistent with dimerization; also called His-Ddi2; purified Ddi2; source: E. coli BL21 RIL (DE3) Codon Plus, purified (Ni-NTA, Superdex gel filtration)

Legend:
Ddi2 = molecular target: T1, Ddi2; experiment: Inhibition of cleavage of fluorescently labeled ubiquitylated NeD-sfGFP by purified His6-Ddi2 (SDS-PAGE, fluorescence imaging); type: biochemical
[1] = molecular target: the molecule itself; experiment: SEC; His-Ddi2 after Ni-NTA on a Superdex 16/60 column in 25 mM Hepes-KOH pH 8, 40 mM potassium acetate, 10% glycerol, 1 mM DTT

Row | Molecule | EC50 (Ddi2) [µM] | binding result [1]
1 | Cc1c(O)cccc1C(=O)N[C@@H](CSc1ccccc1)[C@H](O)CN1C[C@H]2CCCC[C@H]2C[C@H]1C(=O)NC(C)(C)C [nelfinavir] | ~40 | 
2 | B1 |  | binds
